The test system of one assay is A549. Kind of assay: Cytotoxicity against human A549 cells. The class given is cell-based.
Another assay relates to Acinetobacter baumannii. Kind of assay: Antibacterial activity against carbapenem-resistant Acinetobacter baumannii 16-33 by agar method. The class given is functional.
The test system of assay [1] is Enterococcus faecalis. Description: Antibacterial activity against Vancomycin-sensitive Enterococcus faecalis ATCC 29212 by agar method. The assay is classed as functional.
Assay [2] has as its system Escherichia coli. Kind of assay: Antibacterial activity against carbapenem-resistant Escherichia coli 08-85 mcr-1 positive isolate by checkerboard assay. The assay is classed as functional.
Assay [3] concerns Staphylococcus epidermidis. Description: Potency index, ratio of Levofloxacin MIC to test compound MIC for antibacterial activity against methicillin-resistant Staphylococcus epidermidis […] 16-5. The class given is functional.
The subject of assay [4] is Enterobacter cloacae. Description: Synergistic antibacterial activity against carbapenem-resistant Enterobacter cloacae D01 mcr-1 negative isolate assessed as fractional inhibitory concentration index in presence of colistin by checkerboard assay. The assay is classed as functional.
Assay [5] deals with Staphylococcus epidermidis. Kind of assay: Antibacterial activity against methicillin-sensitive Staphylococcus epidermidis ATCC 12228 by agar method. The assay is classed as functional.
In assay [6] the test system is Escherichia coli. Kind of assay: Antibacterial activity against ESBLs negative Escherichia coli ATCC 25922 by agar method. The assay is classed as functional.
Assay [7] deals with Staphylococcus epidermidis. Kind of assay: Antibacterial activity against methicillin-resistant Staphylococcus epidermidis 16-5 by agar method. The class given is functional.
Assay [8] concerns Escherichia coli. Kind of assay: Synergistic antibacterial activity against carbapenem-resistant Escherichia coli 08-85 mcr-1 positive isolate in presence of colistin by checkerboard assay. The class given is functional.
Assay [9] concerns Staphylococcus aureus. Description: Antibacterial activity against methicillin-sensitive Staphylococcus aureus ATCC 29213 by agar method. The assay is classed as functional.
For assay [10], the system named is Staphylococcus aureus. Kind of assay: Antibacterial activity against methicillin-resistant Staphylococcus aureus ATCC 33591 by agar method. The assay is classed as functional.
Assay [11] relates to Enterobacter cloacae. Description: Synergistic antibacterial activity against carbapenem-resistant Enterobacter cloacae D01 mcr-1 negative isolate in presence of colistin by checkerboard assay. The assay is classed as functional.
Assay [12] has as its system Enterobacter cloacae. Description: Antibacterial activity against carbapenem-resistant Enterobacter cloacae D01 mcr-1 negative isolate by checkerboard assay. The class given is functional.
Assay [13] has as its system Escherichia coli. Description: Antibacterial activity against NDM-1 positive Escherichia coli ATCC 2469 by agar method. The class given is functional.
The test system of assay [14] is Enterococcus faecalis. Description: Antibacterial activity against vancomycin-resistant Enterococcus faecalis ATCC 51299 by agar method. The class given is functional.
Assay [15] deals with Escherichia coli. Description: Antibacterial activity against ESBLs positive Escherichia coli ATCC 35218 by agar method. The assay is classed as functional.
Assay [16] relates to Escherichia coli. Kind of assay: Synergistic antibacterial activity against carbapenem-resistant Escherichia coli 08-85 mcr-1 positive isolate assessed as fractional inhibitory concentration index in presence of colistin by checkerboard assay. The assay is classed as functional.

Molecules are shown by their SMILES. pIC50: −log10 of the molar value. Converted amounts (≈) assume the structure as drawn.

What is called pIC50 is the IC50 on a negative log10 scale, so that one unit is a factor of ten. Lower therefore signals a large IC50. What is called MIC is the smallest concentration in the dilution series that meets the test's criterion for growth inhibition. `O=C(/C=C/c1ccc2ccccc2n1)c1ccccn1` showed a negative-log IC50 (pIC50) in the assay on A549 of 4.73. Moreover, the MIC against Acinetobacter baumannii is > 32 mg/L; against Enterococcus faecalis [1] it was 4 mg/L (≈ 15.4 µM); with Escherichia coli [2], 1020 mg/L; in assay [5], 1 mg/L (≈ 3.84 µM); with Escherichia coli [6] it was > 32 mg/L; in [7], 1 mg/L (≈ 3.84 µM). Further, the minimal inhibitory concentration (MIC) with Escherichia coli [8] is 32 mg/L; with Staphylococcus aureus [9], 2 mg/L (≈ 7.68 µM); in the assay with Staphylococcus aureus [10] it was 1 mg/L (≈ 3.84 µM); in the assay with Enterobacter cloacae [11], 4 mg/L; in the assay with Enterobacter cloacae [12] it was 1020 mg/L; against Escherichia coli [13], > 32 mg/L. Further, the minimum inhibitory concentration (MIC) is 4 mg/L (≈ 15.4 µM) in the assay on Enterococcus faecalis [14] and > 32 mg/L against Escherichia coli [15]. In addition, the Ratio in assay [3] amounted to 2. In addition, the “fractional inhibitory concentration index (FICI)” value is reported as 0.012 with Enterobacter cloacae [4] and 0.281 with Escherichia coli [16].

Compound `O=C(/C=C/c1ccc2ccc(C(F)(F)F)cc2n1)c1ccncc1` [PFK-158] gave a pIC50 in the assay with A549 of 4.82. Besides, the minimum inhibitory concentration (MIC) with Acinetobacter baumannii was > 32 mg/L; in the assay on Enterococcus faecalis [1], 4 mg/L (≈ 12.2 µM); in the assay with Escherichia coli [2] it was 1020 mg/L; in [5], 1 mg/L (≈ 3.05 µM); in the assay with Escherichia coli [6] it was > 32 mg/L; in [7], 2 mg/L (≈ 6.09 µM). Also, the minimum inhibitory concentration (MIC) is 2 mg/L in the assay on Escherichia coli [8]; 2 mg/L (≈ 6.09 µM) against Staphylococcus aureus [9]; 2 mg/L (≈ 6.09 µM) in the assay with Staphylococcus aureus [10]; 0.5 mg/L in the assay with Enterobacter cloacae [11]; 1020 mg/L in the assay with Enterobacter cloacae [12]; > 32 mg/L in the assay on Escherichia coli [13]. Further, the figures for the minimum inhibitory concentration (MIC) in the assay on Enterococcus faecalis [14] and against Escherichia coli [15] were 4 mg/L (≈ 12.2 µM) and > 32 mg/L, respectively. In addition, in assay [3], the Ratio is given as 2. Further, the “fractional inhibitory concentration index (FICI)” value with Enterobacter cloacae [4] was determined as 0.008; with Escherichia coli [16] it was 0.252.

`O=C(/C=C/c1ccccn1)c1ccc2ccccc2c1`: the minimal inhibitory concentration (MIC) is > 128 mg/L in the assay on Acinetobacter baumannii; 8 mg/L (≈ 30.9 µM) against Enterococcus faecalis [1]; 1020 mg/L with Escherichia coli [2]; 1 mg/L (≈ 3.86 µM) in assay [5]; > 128 mg/L with Escherichia coli [6]; 2 mg/L (≈ 7.71 µM) in assay [7]. In addition, the MIC was 128 mg/L in the assay with Escherichia coli [8]; 1 mg/L (≈ 3.86 µM) in the assay on Staphylococcus aureus [9]; 1 mg/L (≈ 3.86 µM) against Staphylococcus aureus [10]; 16 mg/L in the assay on Enterobacter cloacae [11]; 1020 mg/L with Enterobacter cloacae [12]; > 128 mg/L in the assay on Escherichia coli [13]. The figures for the minimal inhibitory concentration (MIC) with Enterococcus faecalis [14] and in the assay with Escherichia coli [15] were 8 mg/L (≈ 30.9 µM) and > 128 mg/L, respectively. For the same compound, the entries for the “fractional inhibitory concentration index (FICI)” value with Enterobacter cloacae [4] and in the assay with Escherichia coli [16] were 0.023 and 0.375, respectively.

Consider `O=C(/C=C/c1ccc2c(C(F)(F)F)cccc2n1)c1cccnc1`, for which the pIC50 in the assay with A549 was < 4.30. Besides, the MIC against Acinetobacter baumannii was 128 mg/L (≈ 390 µM); in the assay with Enterococcus faecalis [1], 32 mg/L (≈ 97.5 µM); in [5] it was 2 mg/L (≈ 6.09 µM); in the assay with Escherichia coli [6] it was > 128 mg/L; in assay [7], 2 mg/L (≈ 6.09 µM); in the assay with Staphylococcus aureus [9], 2 mg/L (≈ 6.09 µM). Moreover, the minimal inhibitory concentration (MIC) with Staphylococcus aureus [10] was 2 mg/L (≈ 6.09 µM); with Escherichia coli [13], > 128 mg/L; with Enterococcus faecalis [14], 32 mg/L (≈ 97.5 µM); in the assay with Escherichia coli [15] it was > 128 mg/L. In assay [3], the Ratio stood at 2.

In turn, `O=C(/C=C/c1ccc2ccccc2n1)c1cccnc1` gave a pIC50 with A549 of 4.68. Besides, the MIC in the assay on Acinetobacter baumannii is > 32 mg/L; with Enterococcus faecalis [1], 2 mg/L (≈ 7.68 µM); in the assay on Escherichia coli [2], 1020 mg/L; in [5] it was 2 mg/L (≈ 7.68 µM); in the assay on Escherichia coli [6], > 32 mg/L; in assay [7], 4 mg/L (≈ 15.4 µM). The minimum inhibitory concentration (MIC) is 64 mg/L in the assay with Escherichia coli [8]; 2 mg/L (≈ 7.68 µM) in the assay on Staphylococcus aureus [9]; 2 mg/L (≈ 7.68 µM) with Staphylococcus aureus [10]; 64 mg/L in the assay with Enterobacter cloacae [11]; 1020 mg/L with Enterobacter cloacae [12]; > 32 mg/L with Escherichia coli [13]. Besides, the minimum inhibitory concentration (MIC) in the assay on Enterococcus faecalis [14] is 8 mg/L (≈ 30.7 µM); in the assay on Escherichia coli [15] it was > 32 mg/L. Also, the Ratio in [3] is 2. Besides, the “fractional inhibitory concentration index (FICI)” value was determined as 0.07 with Enterobacter cloacae [4] and 0.313 in the assay on Escherichia coli [16].

As for `O=C(/C=C/c1ccc2ccccc2n1)c1ccccc1`, the minimum inhibitory concentration (MIC) in the assay on Acinetobacter baumannii is > 128 mg/L; in the assay with Enterococcus faecalis [1], 128 mg/L (≈ 494 µM); in [5] it was 2 mg/L (≈ 7.71 µM); with Escherichia coli [6], > 128 mg/L; in assay [7], 4 mg/L (≈ 15.4 µM); in the assay on Staphylococcus aureus [9] it was 2 mg/L (≈ 7.71 µM). In addition, the MIC in the assay with Staphylococcus aureus [10] is 2 mg/L (≈ 7.71 µM); against Escherichia coli [13] it was > 128 mg/L; in the assay with Enterococcus faecalis [14] it was 128 mg/L (≈ 494 µM); in the assay with Escherichia coli [15] it was > 128 mg/L. For the same compound, in assay [3], the Ratio is given as 2.

Values taken from ChEMBL document CHEMBL4814028, “Design, synthesis, and antibacterial evaluation of PFK-158 derivatives as potent agents against drug-resistant bacteria” (Bioorg Med Chem Lett, 2021).
